From patent US7108865B2, “Controlled-release dosage forms of azithromycin” (Pfizer Inc, priority 1994, dated 2006)

Assays:
[1] = Recovery of azithromycin in ileostomy fluid after IV infusion in ileostomy subjects; format: in vivo, human; conditions: 500 mg IV infusion over 1 hr, twelve ileostomy subjects, 24 hr following dose
Description: A 2.0 g intravenous azithromycin dose is equivalent to a 5.4 g oral azithromycin dose, from the standpoint of equivalent systemic drug exposure. At an even higher intravenous dose, a higher side effect incidence is observed. While GI side effects can be elicited by high intravenous doses, these observations are consistent with the statement that azithromycin GI side effects are mediated by direct contact of the drug with the intestinal wall in the lumen, based upon the following additional study. Twelve ileostomy subjects were administered an IV infusion of 500 mg azithromycin over 1 hr. Serum was collected predose and at 0.17, 0.33, 0.5, 1, 2, 4, 8, 12, 24, 48, 72, 96, 120, and 144 hr following initiation, of the infusion. In addition, the contents of the subjects' ileostomy bags were collected for the following intervals: 12 hr predose, 0–6 hr post-dose, 6–12 hr post-dose, and 12–24 hr post-dose. The serum and ileostomy fluid concentrations of azithromycin were assayed. […] Thus it is not surprising that high intravenous doses of azithromycin can cause gastrointestinal side effects, since a portion of the IV dose partitions into the lumen of the small intestine.

[2] = clinical; conditions: male, human, in vivo
Description: Healthy male subjects were divided into two groups. Group A received a 2 g azithromycin dose administered directly into the duodenum as a solution via a nasoenteric tube. Group B received the same azithromycin solution dose, administered directly into the ileocecal region of the small intestine via a nasoenteric tube. The nasoenteric tube was a single lumen, 4.5 meter tube with a side port for delivery of drug. Placement of the tube for duodenal and ileocecal delivery was confirmed by fluoroscopy. Infusions to the duodenum or ileocecal region were administered at a concentration of 40 mg/ml within 5 minutes. All subjects were dosed after an overnight fast. Subjects were randomized to receive azithromycin and placebo via nasoenteric tube and intravenous infusion in a double-blind, placebo controlled fashion.
Blood samples were withdrawn prior to dosing, and at 0.08, 0.17, 0.33, 0.66, 1, 2, 4, 8, 12, 24, 48, 72, and 96 hr post-dosing. Serum azithromycin concentrations were determined using the high performance liquid chromatography assay described in Shepard et al., J. Chromatography, 565: 321–337, (1991). Total systemic exposure to azithromycin was determined by measuring the area under the serum azithromycin concentration vs. time curve (AUC) for each subject in a given group, and then by calculating a mean AUC for the group. Cmax is the highest serum azithromycin concentration achieved in a subject. Tmax is the time at which Cmax is achieved. In one leg of this study, all subjects received an intravenous 2g azithromycin dose. The intravenous AUC was determined in order to calculate the absolute duodenal and ileocecal bioavailabilities, as described below.

[3] = Serum azithromycin pharmacokinetics after 2 g oral capsule dose, single vs divided (Example 1); format: in vivo; conditions: male, human, mean; for AUC(0-t): read-out: AUC0–144
Description: In a double-blind, randomized, placebo-controlled parallel group study, healthy male subjects were divided into three groups. Group A received a single 2 g azithromycin dose as eight 250 mg azithromycin capsules (“bolus dosing” group). Group B received the same total dose, administered as eight 250 mg capsules at the rate of one 250 mg capsule each 30 minutes for 3.5 hr (“divided dosing” group). Group C received matching placebo capsules. All subjects received eight capsules of drug or placebo at time 0, and a capsule of drug or placebo every half-hour for 3.5 hr. All subjects were dosed after an overnight fast. […] Tmax is the time at which Cmax is achieved.

[4] = Visual Analogue Scale gastrointestinal side effects after duodenal or ileocecal dosing (Example 2); format: in vivo, human; conditions: for Incidence of Visual-Analogue-Scale score >1, abdominal cramping / Incidence of Visual-Analogue-Scale score >1, abdominal pain / Incidence of Visual-Analogue-Scale score >1, nausea / Incidence of Visual-Analogue-Scale score >1, regurgitation / Incidence of Visual-Analogue-Scale score >4, abdominal cramping / Incidence of Visual-Analogue-Scale score >4, abdominal pain / Incidence of Visual-Analogue-Scale score >4, nausea / Incidence of Visual-Analogue-Scale score >4, regurgitation: any time during 96 hour post-dose, subjects reporting/total; for Mean Cumulative Score (Visual Analogue Scale), abdominal cramping / Mean Cumulative Score (Visual Analogue Scale), abdominal pain / Mean Cumulative Score (Visual Analogue Scale), nausea / Mean Cumulative Score (Visual Analogue Scale), regurgitation: entire 96 hour post-dose period
Description: Healthy male subjects were divided into two groups. […] All subjects were dosed after an overnight fast.
Prior to dosing and each blood sampling time, each subject filled out a questionnaire, which consisted of a series of “Visual Analogue Scales” in which the subject was required to rate, on a scale of 0–10, the severity of certain potential side effects. The subjects were instructed that “0” indicated an absent effect and “10” indicated the worst possible effect. The subjects were instructed to interpolate between 0 and 10 for moderate side effects.
Analysis of side effect visual-analogue-scale data was carried out in two formats. In the first format (Table V), the analysis concentrated on the general incidence of side effects of a particular type. For each side effect type (e.g., abdominal pain), Table V reports the number of subjects who reported a score >1 at any time during the 96 hr post-dosing, and the number of subjects who reported a score >4 at any time during the 96 hr post-dosing. This analysis assumes that all scores >1 represent a real side effect occurrence, however mild or severe. A score >4 is presumed to reflect a moderate-to-severe side effect occurrence.
In the second format (Table VI), the analysis reflects the general severity and duration of side effects. For a particular side effect (e.g., Abdominal Pain) in a particular subject, all visual-analogue-scale scores (over the 96 hr post-dose period) were summed to give a “cumulative score” over the entire time period of evaluation. “Cumulative scores” for all members of a treatment group were summed, and divided by the number of subjects in the group, to give a Mean Cumulative Score. […] Table VI presents Mean Cumulative Scores for abdominal pain, nausea, regurgitation, and abdominal cramping.

[5] = 250 mg capsule per half-hr for 3.5 hr (2 g total), oral, fasted
[6] = 2 g single oral dose as eight 250 mg capsules, fasted
[7] = 2 g directly into the ileocecal region
[8] = 2 g solution directly into the duodenum, n 5
[9] = 2 g solution directly into the ileocecal region, n 6

dose recovered intact in the ileostomy fluid [1]: 13%
AUC0–96 [2]: 14500 ng·h/mL
bioavailability [2]: 39.1%
bioavailability for duodenal dosing (AUCduodenal/AUCIV×100) [2]: 43.8%
overall systemic exposure (AUC) lower for ileocecal dosing compared with duodenal dosing [2]: 15%
AUC(0-t) ([2]; AUC0–96): 17000 ng·h/mL
Cmax [3, 5]: 1130 ng/mL
Tmax [3, 5]: 4.4 h
AUC(0-t) [3, 5]: 18900 ng·h/mL
Cmax ([3]; 2 g single oral dose as eight 250 mg capsules, fasted healthy male subjects): 1690 ng/mL
Tmax [3, 6]: 1.3 h
AUC(0-t) [3, 6]: 18800 ng·h/mL
Structure (SMILES): CC[C@H]1OC(=O)[C@H](C)[C@@H](O[C@H]2C[C@@](C)(OC)[C@@H](O)[C@H](C)O2)[C@H](C)[C@@H](O[C@@H]2O[C@H](C)C[C@H](N(C)C)[C@H]2O)[C@](C)(O)C[C@@H](C)CN(C)[C@H](C)[C@@H](O)[C@]1(C)O [azithromycin, 9a-aza-9a-methyl-9-deoxo-9a-homoerythromycin A]
Incidence of Visual-Analogue-Scale score >1, abdominal cramping ([4]; 2 g directly into the duodenum): 5/5
Incidence of Visual-Analogue-Scale score >1, abdominal pain ([4]; 2 g directly into the duodenum): 4/5
Incidence of Visual-Analogue-Scale score >1, nausea ([4]; 2 g directly into the duodenum): 2/5
Incidence of Visual-Analogue-Scale score >1, regurgitation ([4]; 2 g directly into the duodenum): 3/5
Incidence of Visual-Analogue-Scale score >4, abdominal cramping ([4]; 2 g directly into the duodenum): 0/5
Incidence of Visual-Analogue-Scale score >4, abdominal pain ([4]; 2 g directly into the duodenum): 0/5
Incidence of Visual-Analogue-Scale score >4, nausea ([4]; 2 g directly into the duodenum): 1/5
Incidence of Visual-Analogue-Scale score >4, regurgitation ([4]; 2 g directly into the duodenum): 0/5
Incidence of Visual-Analogue-Scale score >1, abdominal cramping [4, 7]: 2/6
Incidence of Visual-Analogue-Scale score >1, abdominal pain [4, 7]: 2/6
Incidence of Visual-Analogue-Scale score >1, nausea [4, 7]: 2/6
Incidence of Visual-Analogue-Scale score >1, regurgitation [4, 7]: 0/6
Incidence of Visual-Analogue-Scale score >4, abdominal cramping [4, 7]: 0/6
Incidence of Visual-Analogue-Scale score >4, abdominal pain [4, 7]: 0/6
Incidence of Visual-Analogue-Scale score >4, nausea [4, 7]: 0/6
Incidence of Visual-Analogue-Scale score >4, regurgitation [4, 7]: 0/6
Mean Cumulative Score (Visual Analogue Scale), abdominal cramping [4, 8]: 13.2
Mean Cumulative Score (Visual Analogue Scale), abdominal pain [4, 8]: 13.4
Mean Cumulative Score (Visual Analogue Scale), nausea [4, 8]: 11.6
Mean Cumulative Score (Visual Analogue Scale), regurgitation [4, 8]: 7.2
Mean Cumulative Score (Visual Analogue Scale), abdominal cramping [4, 9]: 3.3
Mean Cumulative Score (Visual Analogue Scale), abdominal pain [4, 9]: 2.7
Mean Cumulative Score (Visual Analogue Scale), nausea [4, 9]: 2.0
Mean Cumulative Score (Visual Analogue Scale), regurgitation [4, 9]: 0
